Measured values as given in patent US7456197B2, “Pyridinium cationic lipids as gene transfer agents” (The Texas A&M University System, priority 2003, dated 2008).
“Also recorded” adds a separate entry of the source.

What was measured:
[1] = Cationic liposome size by dynamic light scattering; type: physicochemical
Procedure: (§1) The three series of cationic lipids newly synthesized were assessed for their transfection efficiency in vitro, using the experimental conditions optimized in a previous study.^23 Essentially the cationic lipids were mixed with cholesterol at a 1:1 molar ratio, dissolved in chloroform/methanol and dried under vacuum to generate a lipid film. The dried lipid film was hydrated with sterile phosphate buffer isotonic saline with pH=7.4 (PBS) and sonicated to yield cationic liposomes. The resulting liposomal solution was allowed to react with a DNA solution to form the final cationic lipid-DNA complexes (lipoplexes), which were assessed for transfection efficiency using different cell cultures. We used a pGL3 plasmid (Promega, Madison, Wisc.), encoding a firefly luciferase gene under the control of the constitutively active SV40 promoter as the reporter for the transfection efficiency. An optimal^23 electrostatic charge ratio cationic lipid/DNA of 2:1 was used in all preparations. […] The ability of these new cationic lipids to generate relatively small cationic liposomes could be attributed to the relatively large curvature radius induced in the bilayer by the bulky pyridinium cationic head.
(§2) Dioleoylphosphatidylethanolamine (DOPE), cholesterol (CHOL), N-(2,3-dioleoyloxypropyl)-N,N,N-trimethylammonium chloride (DOTAP) were commercial products. The purity of the lipids was checked by thin layer chromatography and also by differential scanning calorimetry (DSC), which was also used for determining the critical temperature Tc. For the preparation of the liposomes a protocol optimized for this type of compounds was adopted as follows. The cationic lipid (with or without helper lipid) was dissolved in chloroform/methanol (2/1, v/v) to reach a final concentration of 1 mM for the charged species. From this stock solution 50 μL were aliquoted in a 1 mL tube and the solvent was evaporated in a SpeedVac evaporator, under vacuum, for 1 h. The dried lipid film was prepared by removing the traces of organic solvent in a dessicator, over Drierite®, under vacuum, overnight. The film was hydrated with 500 μL sterile phosphate buffer saline (PBS) the tube was purged with sterile N2, and vortexed for 1 minute. The liposomes were generated by sonicating the tube in a water bath sonicator for 5-30 minutes at 62° C. and at 37° C. for DOTAP. After sonication the preparations were allowed to reach room temperature.

[2] = test system: lung cancer cell line NCI-H23; assay: Luciferase (pGL3) transfection efficiency of lipoplexes, NCI-H23; type: cell-based, human
Procedure: as §1, §2
For generating the lipoplexes, 1.4-2.8 μL plasmid DNA solution (0.5 μg/μL) was diluted with 100 μL Optimem®. A liposome solution was prepared separately by diluting the initial liposomal stock solution (0.1 mM in cationic lipid) with Optimem® in specified proportions, to reach a final volume of 50 μL. Over this liposome solution 50 μL of the DNA stock solution was added, the tube was incubated for 30 minutes at room temperature and then the content diluted with 500 μL Optimem® (final volume of the lipoplex stock solution: 600 μL).
The lipoplexes was tested for their transfection properties over five different cancer cell lines—breast carcinoma (MCF-7 and MDA-Mb231), lung carcinoma (NCI-H23), prostate carcinoma (DU-145) and brain carcinoma (SWB-95). The cells were maintained in 10% fetal bovine serum (FBS)—enriched RPMI 1640 at 37° C. and 5% CO2 in a humidified atmosphere. Twenty-four hours prior to transfection the cells were transferred in 96-wells microtiter plate at a density of 20,000 cells/well. Each well received 100 μL medium and the plate was incubated in the same conditions. All experiments were done in triplicate or quadruplicate.
Immediately before transfection the medium was removed from each well and the cells were briefly washed with 200 μL sterile PBS. After removal of the PBS each well received 100 μL lipoplex stock solution and the plate was placed in the incubator for 1 hour. Then, 100 μL medium was added to each well and the plate was incubated for 24 hours. […]

[3] = test system: breast carcinoma MDA-Mb231; assay: Luciferase (pGL3) transfection efficiency of lipoplexes, MDA-Mb231; type: cell-based; settings: optimized lipoplexes, Chol 1:1, FIG. 7
Excerpt: (§3) It is well known that specific cell types and cell lines may vary in their ability to be transfected. In addition to the NCI-H23 lung cancer cell line, we therefore tested our optimized formulation of 5AMyr/Chol 1:1 versus DOTAP/Chol 1:1 as reference on four other cell lines from tumors representing cancers of great importance to human health, as well as different tissues of origin: breast carcinomas MCF-7, MDA-Mb231, prostate carcinoma DU-145 and glioma SWB-95 (FIG. 7).
(§4) Dioleoylphosphatidylethanolamine (DOPE), cholesterol (CHOL), N-(2,3-dioleoyloxypropyl)-N,N,N-trimethylammonium chloride (DOTAP) were commercial products. The purity of the lipids was checked by thin layer chromatography and also by differential scanning calorimetry (DSC), which was also used for determining the critical temperature Tc. For the preparation of the liposomes a protocol optimized for this type of compounds was adopted as follows. The cationic lipid (with or without helper lipid) was dissolved in chloroform/methanol (2/1, v/v) to reach a final concentration of 1 mM for the charged species. […]
(§5) For the luciferase assay, 20 μL of cell lysate was aliquoted in a test tube and assessed directly using a luciferase assay kit from Promega by means of a luminometer.
(§6) The protein content was quantified using a bicinchoninic acid (BCA) assay. […]

[4] = test system: glioma SWB-95; assay: Luciferase (pGL3) transfection efficiency of lipoplexes, SWB-95; type: cell-based; settings: optimized lipoplexes, Chol 1:1, FIG. 7
Excerpt: as §3, §4, §5, §6

[5] = test system: cancer cell line NCI-H23; assay: WST-1 viability assay of transfected cells; type: cell-based, human
Procedure: FIG. 6. Viability assay results for the cancer cell line NCI-H23 transfected with 5AMyr-5EMyr and DOTAP (Cl^−)-based lipoplexes. The other characteristics were the same as in the transfection experiment represented in FIG. 5.
In order to assess the cytotoxicity associated with every anion, a WST-1^28 viability assay was conducted in parallel.

For `CCCCCCCCCCCCCC(=O)OCC(COC(=O)CCCCCCCCCCCCC)[n+]1c(C)cc(C)cc1C.F[P-](F)(F)(F)(F)F` [Lipid 5AMyr, 1-(1,3-dimyristoyloxypropane-2-yl)-2,4,6-trimethylpyridinium hexafluorophosphate], the “average size of the cationic vesicles” value ([1]; cholesterol at 1:1 molar ratio to cationic lipid) was 95 nm, the “average size of the cationic vesicles” value ([1]; molar ratio of cholesterol to lipid halved) was 88 nm and the “transfection efficiency, counterion study” value ([2]; 5Myr/Chol 1:1, PBS, sonicated two sequences of 15 minutes, FIG. 5) was “surpassed DOTAP in transfection efficiency”. The “expression of luciferase relative to DOTAP/Chol 1:1” value ([2]; cholesterol 1:1) was “about twice more effective than DOTAP”, the “transfection efficiency (in words)” value ([2]; cholesterol as helper lipid 1:1, charge ratio lipid/DNA 2:1) was “highest transfection peaks; also recorded: the most effective” and the “transfection efficiency (luciferase activity normalized for protein)” value ([2]; optimized lipoplexes, Chol 1:1, FIG. 7 caption (from FIG. 4)) was 576000 RLU/μg of protein. The “transfection efficiency (luciferase activity normalized for protein)” value [3] was 2950 RLU/μg of protein, the “transfection efficiency (luciferase activity normalized for protein)” value [4] was 10934 RLU/μg of protein and the “cytotoxicity (WST-1 viability)” value ([5]; NCI-H23 transfected with lipoplexes, Chol 1:1, FIG. 6) was “minimum cytotoxicity; also recorded: lower cytotoxic effect”. The “cytotoxic effect on longer cell exposure to lipoplexes” value ([5]; exposure from one hour to three hours, data not shown) was “without any visible cytotoxic effect”.
